Reference: paper PMC5342726, “Identification of small molecule inhibitors of ERCC1-XPF that inhibit DNA repair and potentiate cisplatin efficacy in cancer cells” (Oncotarget, 2016)

Tests used:
ERCC1-XPF [1] = biological target: T1, ERCC1-XPF (Homo sapiens, UniProt P07992+Q92889); assay: EMSA, binding of ERCC1-XPF to DNA; conditions: for effect on binding of purified ERCC1-XPF to DNA: compound titration, concentrations used in further in vitro experiments
T1 construct: made in house; host or cells: Sf9 insect cells, baculovirus (obtained from Aziz Sancar)
T1 sequence (Q92889 1-916): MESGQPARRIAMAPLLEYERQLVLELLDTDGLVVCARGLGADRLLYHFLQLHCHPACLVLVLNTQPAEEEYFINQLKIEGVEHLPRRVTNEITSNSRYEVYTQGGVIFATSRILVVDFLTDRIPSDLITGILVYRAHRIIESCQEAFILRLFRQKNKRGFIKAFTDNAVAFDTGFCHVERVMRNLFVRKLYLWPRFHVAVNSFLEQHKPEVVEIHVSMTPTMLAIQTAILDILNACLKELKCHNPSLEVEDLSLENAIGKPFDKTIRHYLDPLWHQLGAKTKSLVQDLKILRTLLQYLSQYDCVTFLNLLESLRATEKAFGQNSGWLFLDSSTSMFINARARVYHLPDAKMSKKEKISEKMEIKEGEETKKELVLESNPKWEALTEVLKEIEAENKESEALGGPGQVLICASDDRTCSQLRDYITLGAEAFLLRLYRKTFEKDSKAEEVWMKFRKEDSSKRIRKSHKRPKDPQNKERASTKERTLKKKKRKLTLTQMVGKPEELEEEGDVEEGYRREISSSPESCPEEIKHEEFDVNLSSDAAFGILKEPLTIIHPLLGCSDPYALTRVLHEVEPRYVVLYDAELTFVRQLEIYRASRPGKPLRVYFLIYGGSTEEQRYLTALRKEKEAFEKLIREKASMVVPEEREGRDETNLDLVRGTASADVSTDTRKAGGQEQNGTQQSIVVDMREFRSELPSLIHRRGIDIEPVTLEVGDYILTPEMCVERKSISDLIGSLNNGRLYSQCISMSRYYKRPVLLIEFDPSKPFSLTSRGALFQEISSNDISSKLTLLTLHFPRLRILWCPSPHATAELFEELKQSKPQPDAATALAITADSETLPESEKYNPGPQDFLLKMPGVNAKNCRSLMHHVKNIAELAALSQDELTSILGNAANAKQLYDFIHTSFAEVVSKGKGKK
T1 sequence (P07992 1-297): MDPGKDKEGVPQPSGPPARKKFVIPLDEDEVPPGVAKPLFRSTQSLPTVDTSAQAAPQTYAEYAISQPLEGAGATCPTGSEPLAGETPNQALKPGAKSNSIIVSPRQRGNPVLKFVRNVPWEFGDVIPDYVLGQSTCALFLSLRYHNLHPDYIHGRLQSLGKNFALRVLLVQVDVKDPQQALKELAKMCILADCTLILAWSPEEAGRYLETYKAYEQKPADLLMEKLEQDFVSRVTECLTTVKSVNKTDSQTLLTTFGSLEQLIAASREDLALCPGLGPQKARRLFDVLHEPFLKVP
Method: In order to study if the compounds' inhibitory activity of ERCC1-XPF incision is due to inhibition of DNA binding ability, we performed EMSAs [23]. […] In this assay, we incubated the titrated Hit 1 or 2 respectively with purified ERCC1-XPF on ice and reactions were initiated by the addition of the 5'-[^32P] radiolabeled DNA substrate 37°C. The samples were separated on a 10% native gel and the products were visualized via phosphorimager analysis.
Sciences Core at Karmanos Cancer Institute using DNA Binding-electrophoretic mobility shift assay
was used for testing the effect of compounds on the DNA
in SF9 insect cells using a baculovirus expression system requires metal for DNA incision, MgCl2 was excluded
0.1M EDTA was added to the
Post incubation, glutaraldehyde was added to a final
column, which was initially loaded and washed with a low minutes at 37°C. The reaction was run on a 10% native

ERCC1-XPF [2] = biological target: T1, ERCC1-XPF; assay: Gel-based in vitro incision assay, ERCC1-XPF; format: biochemical; conditions: purified ERCC1-XPF, 5'-32P DNA substrate, 37°C; read-out: IC50 from the gel-based assay
Method: The gel-based in vitro incision assay has been described and extensively used. Here, we titrated Hit 1 (Figure 2A) with ERCC1-XPF or control endonuclease HhaI (Figure 2B) on ice and reactions were initiated by the addition of the 5'-[^32P] radiolabeled DNA substrate at 37°C. The products are visualized via phosphorimager analysis and the ERCC1-XPF or HhaI incised product is illustrated as a faster migrating band in the gel (Figure 2A and 2B).
Hits from the HTS fluorescence screen were validated in a gel based nuclease activity assay as previously described. This assay is robust and highly quantitative. Briefly, the 26- mer DNA substrate (Figure 1) was labeled on the 5'-terminus with [γ^32P]-ATP using T4 polynucleotide kinase (NEB) for 30 minutes at 37°C. The 5'-labeled DNA substrate was annealed to its complementary strand by heating to 95°C for 5 minutes, followed by 65°C and then 37°C for a total of 2 hours. This substrate was gel-purified on a 10% native polyacrylamide gel in TBE (Tris, borate, EDTA electrophoresis buffer), developed, cut and kept for gel elution overnight at 4°C. Post gel elution, the substrate was ethanol precipitated and the counts were determined. The final substrate was stored at −20°C. […]

`Cc1ccc(S(=O)(=O)Oc2cc(S(=O)(=O)O)cc3cc(S(=O)(=O)O)cc(N)c23)cc1` [NSC16168] was tested. Which “effect on binding of purified ERCC1-XPF to DNA” value (ERCC1-XPF [1]) did it give?
The value was “does not affect DNA binding of ERCC1-XPF”.

And the “effect on binding of ERCC1-XPF to DNA at the highest concentrations” value (ERCC1-XPF [1]; highest concentrations)?
The value was “minor effect on the DNA binding”.

What about the IC50 (ERCC1-XPF [2]) of the same molecule?
The IC50 was roughly 500 nM.

Which results are given for `Oc1cc(O)c2c(c1)OC(c1ccc(O)c(O)c1)C(O)C2c1c(O)cc(O)c2c1OC(c1ccc(O)c(O)c1)C(O)C2` (centres unmarked) [NSC143099]?
effect on binding of purified ERCC1-XPF to DNA (ERCC1-XPF [1]): does not affect the binding of purified ERCC1-XPF to DNA; IC50 (ERCC1-XPF [2]): ~25 nM
